Test results reported in ChEMBL document CHEMBL1201862, “PubChem BioAssay data set” (2004).
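Cells were grown in 96-well plates and exposed to each compound for 48 hours at five concentrations; endpoints were interpolated linearly between bracketing concentrations, or set to the highest concentration if not reached. GI50 marks 50% less growth.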 Calls of active or inactive are those of the source. Cut-off read from the data, not from the text of the source: active = GI50 up to about 1.1 µM and inactive = higher.

Tests used:
Test in all cases: DTP human tumour cell line panel, 48 h
[1] = test system: TK-10
[2] = test system: LOX IMVI
[3] = test system: U-251
[4] = test system: NCI-H226
[5] = test system: COLO 205
[6] = test system: SK-OV-3
[7] = test system: HCT-116
[8] = test system: HCC 2998
[9] = test system: SNB-19
[10] = test system: OVCAR-8
[11] = test system: SK-MEL-2
[12] = test system: IGROV-1
[13] = test system: EKVX
[14] = test system: HCT-15
[15] = test system: RXF 393
[16] = test system: CCRF-CEM
[17] = test system: HOP-62
[18] = test system: UACC-62
[19] = test system: ACHN
[20] = test system: T47D
[21] = test system: MOLT-4
[22] = test system: M14
[23] = test system: OVCAR-3
[24] = test system: NCI-H460
[25] = test system: KM12
[26] = test system: BT-549
[27] = test system: DU-145
[28] = test system: OVCAR-5
[29] = test system: PC-3
[30] = test system: NCI-H23
[31] = test system: SW-620
[32] = test system: NCI/ADR-RES
[33] = test system: CAKI-1
[34] = test system: SF-295
[35] = test system: MDA-MB-435
[36] = test system: OVCAR-4
[37] = test system: A498
[38] = test system: A549
[39] = test system: HT-29
[40] = test system: MDA-MB-231
[41] = test system: MDA-N
[42] = test system: 786-0
[43] = test system: SK-MEL-5
[44] = test system: HL-60
[45] = test system: UO-31
[46] = test system: SK-MEL-28
[47] = test system: MCF7
[48] = test system: Malme-3M
[49] = test system: HOP-92
[50] = test system: UACC-257
[51] = test system: SNB-75
[52] = test system: K562
[53] = test system: SF-539
[54] = test system: SN12C
[55] = test system: SF-268
[56] = test system: NCI-H522
[57] = test system: SR
[58] = test system: RPMI-8226

COc1ccc(Cc2nc3cc([N+](=O)[O-])ccc3n2C[C@@H]2CCCN3CCCCC23)cc1 (stereo partly specified)
GI50 [1]: 25.2 µM (inactive)
GI50 [2]: 16.7 µM (inactive)
GI50 [3]: 20.9 µM (inactive)
GI50 [4]: 31.6 µM (inactive)
GI50 [5]: 13.7 µM (inactive)
GI50 [6]: 20.2 µM (inactive)
GI50 [7]: 14.7 µM (inactive)
GI50 [8]: 12.6 µM (inactive)
GI50 [9]: 19.8 µM (inactive)
GI50 [10]: 45.7 µM (inactive)
GI50 [11]: 17.7 µM (inactive)
GI50 [12]: 17.7 µM (inactive)
GI50 [13]: 31 µM (inactive)
GI50 [14]: 23.4 µM
GI50 [15]: 15.4 µM (inactive)
GI50 [16]: 11.2 µM (inactive)
GI50 [17]: 19.3 µM (inactive)
GI50 [18]: 17.3 µM (inactive)
GI50 [19]: 33.2 µM (inactive)
GI50 [20]: 33.1 µM (inactive)
GI50 [21]: 18.6 µM (inactive)
GI50 [22]: 14.2 µM (inactive)
GI50 [23]: 20.9 µM (inactive)
GI50 [24]: 28.2 µM (inactive)
GI50 [25]: 16.3 µM (inactive)
GI50 [26]: 19.7 µM (inactive)
GI50 [27]: 37.9 µM (inactive)
GI50 [28]: 29.3 µM (inactive)
GI50 [29]: 27.1 µM (inactive)
GI50 [30]: 29.8 µM (inactive)
GI50 [31]: 26 µM (inactive)
GI50 [32]: 25.2 µM (inactive)
GI50 [33]: 19.3 µM (inactive)
GI50 [34]: 18 µM (inactive)
GI50 [35]: 18.6 µM (inactive)
GI50 [36]: 18.7 µM (inactive)
GI50 [37]: 16.6 µM (inactive)
GI50 [38]: 15.8 µM (inactive)
GI50 [39]: 17 µM (inactive)
GI50 [40]: 19.3 µM (inactive)
GI50 [41]: 17.7 µM (inactive)
GI50 [42]: 18.6 µM (inactive)
GI50 [43]: 14.8 µM (inactive)
GI50 [44]: 4.01 µM (inactive)
GI50 [45]: 8.3 µM (inactive)
GI50 [46]: 17.7 µM (inactive)
GI50 [47]: 27.2 µM (inactive)
GI50 [48]: 16.7 µM (inactive)
GI50 [49]: 12.8 µM (inactive)
GI50 [50]: 15.8 µM (inactive)
GI50 [51]: 40.7 µM (inactive)
GI50 [52]: 19.8 µM (inactive)

COC(=O)C(/C(=N\O)C(=O)Nc1cccc(Cl)c1C)c1cnc2ccccc2n1 (stereo unspecified)
GI50 [1]: > 100 µM (inactive)
GI50 [2]: > 100 µM (inactive)
GI50 [3]: > 100 µM (inactive)
GI50 [4]: > 100 µM (inactive)
GI50 [5]: > 100 µM (inactive)
GI50 [6]: > 100 µM (inactive)
GI50 [7]: > 100 µM (inactive)
GI50 [8]: > 100 µM (inactive)
GI50 [9]: > 100 µM (inactive)
GI50 [10]: > 100 µM (inactive)
GI50 [11]: > 100 µM (inactive)
GI50 [12]: > 100 µM (inactive)
GI50 [13]: > 100 µM (inactive)
GI50 [14]: > 100 µM
GI50 [15]: 92.9 µM (inactive)
GI50 [16]: > 100 µM (inactive)
GI50 [17]: > 100 µM (inactive)
GI50 [53]: > 100 µM (inactive)
GI50 [18]: > 100 µM (inactive)
GI50 [19]: > 100 µM (inactive)
GI50 [20]: > 100 µM (inactive)
GI50 [21]: > 100 µM (inactive)
GI50 [22]: > 100 µM (inactive)
GI50 [23]: > 100 µM (inactive)
GI50 [24]: > 100 µM (inactive)
GI50 [25]: > 100 µM (inactive)
GI50 [26]: > 100 µM (inactive)
GI50 [27]: > 100 µM (inactive)
GI50 [28]: > 100 µM (inactive)
GI50 [29]: > 100 µM (inactive)
GI50 [30]: > 100 µM (inactive)
GI50 [31]: > 100 µM (inactive)
GI50 [32]: > 100 µM (inactive)
GI50 [33]: > 100 µM (inactive)
GI50 [34]: > 100 µM (inactive)
GI50 [35]: > 100 µM (inactive)
GI50 [36]: > 100 µM (inactive)
GI50 [37]: > 100 µM (inactive)
GI50 [38]: > 100 µM (inactive)
GI50 [39]: > 100 µM (inactive)
GI50 [40]: > 100 µM (inactive)
GI50 [41]: > 100 µM (inactive)
GI50 [42]: > 100 µM (inactive)
GI50 [54]: > 100 µM (inactive)
GI50 [55]: > 100 µM (inactive)
GI50 [56]: > 100 µM (inactive)
GI50 [43]: > 100 µM (inactive)
GI50 [45]: > 100 µM (inactive)
GI50 [46]: > 100 µM (inactive)
GI50 [57]: > 100 µM (inactive)
GI50 [47]: > 100 µM (inactive)
GI50 [48]: > 100 µM (inactive)
GI50 [49]: > 100 µM (inactive)
GI50 [50]: > 100 µM (inactive)
GI50 [51]: > 100 µM (inactive)
GI50 [52]: > 100 µM (inactive)

O=C(O)C/C(=C\c1ccco1)C(=O)O
GI50 [1]: > 100 µM (inactive)
GI50 [2]: > 100 µM (inactive)
GI50 [3]: > 100 µM (inactive)
GI50 [4]: > 100 µM (inactive)
GI50 [5]: > 100 µM (inactive)
GI50 [6]: > 100 µM (inactive)
GI50 [7]: > 100 µM (inactive)
GI50 [9]: > 100 µM (inactive)
GI50 [10]: > 100 µM (inactive)
GI50 [11]: > 100 µM (inactive)
GI50 [12]: > 100 µM (inactive)
GI50 [13]: > 100 µM (inactive)
GI50 [14]: > 100 µM
GI50 [15]: > 100 µM (inactive)
GI50 [17]: > 100 µM (inactive)
GI50 [53]: > 100 µM (inactive)
GI50 [18]: > 100 µM (inactive)
GI50 [19]: > 100 µM (inactive)
GI50 [20]: > 100 µM (inactive)
GI50 [21]: > 100 µM (inactive)
GI50 [22]: > 100 µM (inactive)
GI50 [23]: > 100 µM (inactive)
GI50 [25]: > 100 µM (inactive)
GI50 [26]: > 100 µM (inactive)
GI50 [27]: > 100 µM (inactive)
GI50 [28]: > 100 µM (inactive)
GI50 [29]: > 100 µM (inactive)
GI50 [58]: > 100 µM (inactive)
GI50 [30]: > 100 µM (inactive)
GI50 [31]: > 100 µM (inactive)
GI50 [32]: > 100 µM (inactive)
GI50 [33]: > 100 µM (inactive)
GI50 [34]: > 100 µM (inactive)
GI50 [35]: > 100 µM (inactive)
GI50 [36]: > 100 µM (inactive)
GI50 [37]: > 100 µM (inactive)
GI50 [38]: > 100 µM (inactive)
GI50 [39]: > 100 µM (inactive)
GI50 [40]: > 100 µM (inactive)
GI50 [41]: > 100 µM (inactive)
GI50 [42]: > 100 µM (inactive)
GI50 [54]: > 100 µM (inactive)
GI50 [56]: > 100 µM (inactive)
GI50 [43]: > 100 µM (inactive)
GI50 [44]: > 100 µM (inactive)
GI50 [45]: > 100 µM (inactive)
GI50 [46]: > 100 µM (inactive)
GI50 [57]: > 100 µM (inactive)
GI50 [47]: > 100 µM (inactive)
GI50 [48]: > 100 µM (inactive)
GI50 [50]: > 100 µM (inactive)
GI50 [51]: > 100 µM (inactive)
GI50 [52]: > 100 µM (inactive)
